ChEMBL document CHEMBL1142427, “Cytotoxic triterpenoid saponins acylated with monoterpenic acid from Pithecellobium lucidum” (J Nat Prod, 2008)

Experiments:
A2780 = experiment: Cytotoxicity against human A2780 cells after 96 hrs by MTT assay; type: functional, cell-based; details: A2780, 96 h
[1] = Toxicity in rabbit erythrocytes assessed as hemolysis at 0.01 uM to 100 uM; type: cell-based, Oryctolagus cuniculus; details: erythrocyte
HCT-8 = experiment: Cytotoxicity against human HCT8 cells after 96 hrs by MTT assay; type: functional, cell-based; details: HCT-8, 96 h
A549 = experiment: Cytotoxicity against human A549 cells after 96 hrs by MTT assay; type: functional, cell-based; details: A549, 96 h
Bel-7402 = experiment: Cytotoxicity against human Bel7402 cells after 96 hrs by MTT assay; type: functional, cell-based; details: Bel-7402, 96 h
BGC-823 = experiment: Cytotoxicity against human BGC823 cells after 96 hrs by MTT assay; type: functional, cell-based; details: BGC-823, 96 h

| SMILES | IC50 (A2780) | Activity [1] | IC50 (HCT-8) | IC50 (A549) | IC50 (Bel-7402) | IC50 (BGC-823) |
| --- | --- | --- | --- | --- | --- | --- |
| C[C@H]1O[C@@H](OC[C@H]2O[C@@H](O[C@H]3CC[C@]4(C)[C@H]5CC=C6[C@@H]7CC(C)(C)[C@@H](O)C[C@]7(C(=O)O)[C@H](O)C[C@@]6(C)[C@]5(C)CC[C@H]4C3(C)C)[C@H](O)[C@@H](O)[C@@H]2O)[C@H](O[C@@H]2OC[C@@H](O)[C@H](O)[C@H]2O)[C@@H](O)[C@H]1O | > 10 µM | Non-toxic | > 10 µM | > 10 µM | > 10 µM | > 10 µM |
| C=C[C@@](C)(CC/C=C(\CO)C(=O)O[C@H]1C[C@]2(C(=O)O[C@@H]3O[C@H](CO)[C@@H](O)[C@H](O)[C@H]3O[C@@H]3O[C@@H](C)[C@H](O[C@@H]4O[C@@H](CO)[C@H](O)[C@H]4O)[C@@H](O[C@@H]4O[C@H](CO)[C@@H](O)[C@H](O)[C@H]4O)[C@H]3O)[C@H](O)C[C@]3(C)C(=CC[C@@H]4[C@@]5(C)CC[C@H](O[C@@H]6O[C@H](CO[C@@H]7O[C@H](C)[C@H](O)[C@H](O)[C@H]7O[C@@H]7OC[C@@H](O)[C@H](O)[C@H]7O)[C@@H](O)[C@H](O)[C@H]6O)C(C)(C)[C@@H]5CC[C@]43C)[C@@H]2CC1(C)C)O[C@@H]1O[C@H](C)[C@@H](O)[C@H](O)[C@H]1O | 1.35 µM | Non-toxic | 1.5 µM | > 10 µM | > 10 µM | > 10 µM |
| CC[C@@]1(O)C(=O)OCc2c1cc1n(c2=O)Cc2cc3ccccc3nc2-1 [CAMPTOTHECIN] | 0.28 µM | – | 3.15 µM | 3.12 µM | 12.5 µM | 9.67 µM |
| C=C[C@@](C)(CC/C=C(\CO)C(=O)O[C@H]1C[C@]2(C(=O)O[C@@H]3O[C@H](CO)[C@@H](O)[C@H](O)[C@H]3O[C@@H]3O[C@@H](C)[C@H](O[C@@H]4O[C@@H](CO)[C@H](O)[C@H]4O)[C@@H](O[C@@H]4O[C@H](CO)[C@@H](O)[C@H](O)[C@H]4O)[C@H]3O)[C@H](O)C[C@]3(C)C(=CC[C@@H]4[C@@]5(C)CC[C@H](O[C@@H]6O[C@H](CO[C@@H]7O[C@H](C)[C@H](O)[C@H](O)[C@H]7O[C@@H]7OC[C@@H](O)[C@H](O)[C@H]7O)[C@@H](O)[C@H](O)[C@H]6NC(C)=O)C(C)(C)[C@@H]5CC[C@]43C)[C@@H]2CC1(C)C)O[C@@H]1O[C@H](C)[C@@H](O)[C@H](O)[C@H]1O [JULIBROSIDE J29] | 0.61 µM | Non-toxic | 1.5 µM | 1.8 µM | 1.65 µM | 1.9 µM |
| C=C[C@@](C)(CC/C=C(\CO)C(=O)O[C@H]1C[C@]2(C(=O)O[C@@H]3O[C@H](CO)[C@@H](O)[C@H](O)[C@H]3O[C@@H]3O[C@@H](C)[C@H](O[C@@H]4O[C@@H](CO)[C@H](O)[C@H]4O)[C@@H](O[C@@H]4O[C@H](C)[C@@H](O)[C@H](O)[C@H]4O)[C@H]3O)[C@H](O)C[C@]3(C)C(=CC[C@@H]4[C@@]5(C)CC[C@H](O[C@@H]6O[C@H](CO[C@@H]7O[C@H](C)[C@H](O)[C@H](O)[C@H]7O[C@@H]7OC[C@@H](O)[C@H](O)[C@H]7O)[C@@H](O)[C@H](O)[C@H]6O)C(C)(C)[C@@H]5CC[C@]43C)[C@@H]2CC1(C)C)O[C@@H]1O[C@H](C)[C@@H](O)[C@H](O)[C@H]1O [PITHELUCOSIDE A] | > 10 µM | Non-toxic | > 10 µM | > 10 µM | > 10 µM | > 10 µM |
| C=C[C@](C)(O)CC/C=C(\CO)C(=O)O[C@H]1C[C@]2(C(=O)O[C@@H]3O[C@H](CO)[C@@H](O)[C@H](O)[C@H]3O[C@@H]3O[C@@H](C)[C@H](O[C@@H]4O[C@@H](CO)[C@H](O)[C@H]4O)[C@@H](O[C@@H]4O[C@H](CO)[C@@H](O)[C@H](O)[C@H]4O)[C@H]3O)[C@H](O)C[C@]3(C)C(=CC[C@@H]4[C@@]5(C)CC[C@H](O[C@@H]6O[C@H](CO[C@@H]7O[C@H](C)[C@H](O)[C@H](O)[C@H]7O[C@@H]7OC[C@@H](O)[C@H](O)[C@H]7O)[C@@H](O)[C@H](O)[C@H]6O)C(C)(C)[C@@H]5CC[C@]43C)[C@@H]2CC1(C)C [PITHELUCOSIDE B] | 1.23 µM | Non-toxic | > 10 µM | > 10 µM | 2.54 µM | > 10 µM |
| C/C(=C\CO)CC/C=C(\CO)C(=O)O[C@H]1C[C@]2(C(=O)O[C@@H]3O[C@H](CO)[C@@H](O)[C@H](O)[C@H]3O[C@@H]3O[C@@H](C)[C@H](O[C@@H]4O[C@@H](CO)[C@H](O)[C@H]4O)[C@@H](O[C@@H]4O[C@H](CO)[C@@H](O)[C@H](O)[C@H]4O)[C@H]3O)[C@H](O)C[C@]3(C)C(=CC[C@@H]4[C@@]5(C)CC[C@H](O[C@@H]6O[C@H](CO[C@@H]7O[C@H](C)[C@H](O)[C@H](O)[C@H]7O[C@@H]7OC[C@@H](O)[C@H](O)[C@H]7O)[C@@H](O)[C@H](O)[C@H]6O)C(C)(C)[C@@H]5CC[C@]43C)[C@@H]2CC1(C)C [PITHELUCOSIDE C] | 1.66 µM | Non-toxic | 4.24 µM | > 10 µM | 7.56 µM | > 10 µM |
